According to patent publication US4413009A, “N-((Alkylamino)carbonyl)-N-(((alkylamino)carbonyl)oxy)acylamides with antineoplastic activity” (priority 1982, dated 1983):

System: HeLa cells
Test: HeLa cell colony cytotoxicity / growth inhibition test
Format: cell-based, human
Settings: 8 days, 0-50 μg/ml
Method: HeLa cells were seeded in 24-well tissue culture plates at a concentration of 30 cells per well in 1 ml of growth medium (Eagle's minimum essential medium with 5 percent HIFCS). The plates were incubated at 36° C. for 24 hours after which the growth medium was removed. The cells were resuspended in 1 ml of fresh growth medium described above together with a measured quantity of (0-50 μg/ml) of one of the compounds of this invention. The 0 μg/ml concentration served as a control. The tissue culture plates were then incubated at 36° C. for 8 days at which time the medium was removed and the cells were fixed and stained with 0.1% crystal violet in 20% ethanol. The HeLa cell colonies were counted macroscopically, and comparisons of colony size in treated and control wells were made. Test compounds were considered cytotoxic at concentrations which reduced the number of HeLa cell colonies compared to control by 50% or more. Test compounds of the invention were considered to cause HeLa cell growth inhibition at concentrations which reduced the size of colonies by a measurable amount when compared to control.

Compound | Cell Growth Inhibition: concentration at which the size of the HeLa colonies were reduced by a measurable amount (as compared to control) [µg/mL]
CCNC(=O)ON(C(C)=O)C(=O)NCC [Example 2, N-((Ethylamino)carbonyl)-N-(((ethylamino)-carbonyl)oxy)acetamide] | 12.5
CC(=O)N(OC(=O)NC(C)(C)C)C(=O)NC(C)(C)C [Example 3, N-(((1,1-dimethylethyl)amino)carbonyl)-N-((((1,1-dimethylethyl)amino)carbonyl)oxy)acetamide] | 12.5
CCC(=O)N(OC(=O)NC)C(=O)NC [Example 4, N-((methylamino)carbonyl)-N-(((methyl-amino)carbonyl)oxy)propionamide] | 12.5
CCNC(=O)ON(C(=O)CC)C(=O)NCC [Example 5, N-((ethylamino)carbonyl)-N-(((ethylamino)-carbonyl)oxy)propionamide] | 50
CNC(=O)ON(C(=O)NC)C(=O)C(C)(C)C [Example 6, N-((Methylamino)carbonyl)-N-(((methylamino)-carbonyl)oxy)(2,2-dimethyl)propionamide] | 12.5
CC(=O)N(OC(=O)NC1CCCCC1)C(=O)NC1CCCCC1 [Example 7, N-((Cyclohexylamino)carbonyl)-N-(((cyclohexylamino)carbonyl)oxy)acetamide] | 1.6
CC(=O)N(OC(=O)NC(C)C)C(=O)NC(C)C [Example 8, N-(((1-Methylethyl)amino)carbonyl)-N-((((1-methylethyl)amino)carbonyl)oxy)acetamide] | 1.6
CCCNC(=O)ON(C(C)=O)C(=O)NCCC [Example 9, N-((Propylamino)carbonyl)-N-(((propylamino)carbonyl)oxy)acetamide] | 6.3
CC(=O)N(OC(=O)Nc1ccccc1)C(=O)Nc1ccccc1 [Example 10, N-((Phenylamino)carbonyl)-N-(((phenylamino)carbonyl)oxy)acetamide] | 50
CC(=O)N(OC(=O)Nc1cccc(C)c1)C(=O)Nc1cccc(C)c1 [Example 11, N-(((3-methylphenyl)amino)carbonyl)-N-((((3-methylphenyl)amino)carbonyl)oxy)acetamide] | 50
CC(=O)N(OC(=O)Nc1ccc(C)cc1)C(=O)Nc1ccc(C)cc1 [Example 12, N-(((4-Methylphenyl)amino)carbonyl)-N-((((4-methylphenyl)amino)carbonyl)oxy)acetamide] | 12.5
CCCCNC(=O)ON(C(C)=O)C(=O)NCCCC [Example 13, N-((Butylamino)carbonyl)-N-(((butylamino)carbonyl)oxy)acetamide] | 3.1
CC(C)NC(=O)ON(C(=O)NC(C)C)C(=O)c1ccccc1 [Example 14, N-(((1-Methylethyl)amino)carbonyl)-N-((((1-methylethyl)amino)carbonyl)oxy)benzamide] | 0.8
CNC(=O)ON(C(=O)NC)C(=O)c1ccccc1 [Example 15, N-((Methylamino)carbonyl)-N-(((methylamino)-carbonyl)oxy)benzamide] | 3.1
CCNC(=O)ON(C(=O)NCC)C(=O)c1ccccc1 [Example 16, N-((Ethylamino)carbonyl)-N-(((ethylamino)-carbonyl)oxy)benzamide] | 12.5
CCCNC(=O)ON(C(=O)NCCC)C(=O)c1ccccc1 [Example 17, N-((Propylamino)carbonyl)-N-(((propylamino)-carbonyl)oxy)benzamide] | 12.5
CCCCNC(=O)ON(C(=O)NCCCC)C(=O)c1ccccc1 [Example 18, N-((Butylamino)carbonyl)-N-(((butylamino)-carbonyl)oxy)benzamide] | 0.8
CC(C)(C)NC(=O)ON(C(=O)NC(C)(C)C)C(=O)c1ccccc1 [Example 19, N-(((1,1-Dimethylethyl)amino)carbonyl)-N-((((1,1-dimethylethyl)amino)carbonyl)oxy)benzamide] | 50
O=C(Nc1ccccc1)ON(C(=O)Nc1ccccc1)C(=O)c1ccccc1 [Example 20, N-((Phenylamino)carbonyl)-N-(((phenyl-amino)carbonyl)oxy)benzamide] | 50
CCCNC(=O)ON(C(=O)NCCC)C(=O)C1CC1 [Example 22, N-((Propylamino)carbonyl)-N-(((propyl-amino)carbonyl)oxy)cyclopropanecarboxamide] | 3.1
CNC(=O)ON(C(=O)NC)C(=O)C1CC1 [Example 23, N-((Methylamino)carbonyl)-N-(((methylamino)carbonyl)oxy)cyclopropanecarboxamide] | 12.5
CCNC(=O)ON(C(=O)NCC)C(=O)C1CC1 [Example 24, N-((Ethylamino)carbonyl)-N-(((ethylamino)carbonyl)oxy)cyclopropanecarboxamide] | 3.1
CC(C)NC(=O)ON(C(=O)NC(C)C)C(=O)C1CC1 [Example 25, N-(((1-Methylethyl)amino)carbonyl)-N-((((1-methylethyl)amino)carbonyl)oxy)cyclopropanecarboxamide] | 3.1
CCCCNC(=O)ON(C(=O)NCCCC)C(=O)C1CC1 [Example 26, N-((Butylamino)carbonyl)-N-(((butylamino)carbonyl)oxy)cyclopropanecarboxamide] | 12.5
CC(C)(C)NC(=O)ON(C(=O)NC(C)(C)C)C(=O)C1CC1 [Example 27, N-(((1,1-Dimethylethyl)amino)carbonyl)-N-((((1,1-dimethylethyl)amino)carbonyl)oxy)cyclopropanecarboxamide] | 50
O=C(Nc1ccccc1)ON(C(=O)Nc1ccccc1)C(=O)C1CC1 [Example 28, N-((Phenylamino)carbonyl)-N-(((phenylamino)carbonyl)oxy)cyclopropanecarboxamide] | 50
O=C(NC1CCCCC1)ON(C(=O)NC1CCCCC1)C(=O)C1CC1 [Example 29, N-((Cyclohexylamino)carbonyl)-N-(((cyclohexylamino)carbonyl)oxy)cyclopropanecarboxamide] | 12.5
CNC(=O)ON(C(=O)NC)S(C)(=O)=O [Example 30, N-((Methylamino)carbonyl)-N-(((methyl-amino)carbonyl)oxy)methanesulfamide] | 3.1
CCNC(=O)ON(C(=O)NCC)S(C)(=O)=O [Example 31, N-((Ethylamino)carbonyl)-N-(((ethylamino)-carbonyl)oxy)-methanesulfamide] | 3.1
